According to EP0250134B1, “Method for combating swine dysentery” (IMCERA Group Inc., priority 1986, dated 1987):

Test system: Treponema hyodysenteriae induced swine dysentery
Test: Treponema hyodysenteriae induced swine dysentery, lysocellin in feed, 51-day trial, challenge on study day 22
Type: in vivo
Details: for Number of Pigs per Pen Expressing Clinical Signs of Dysentery During the Postchallenge Period: Anorexia / Number of Pigs per Pen Expressing Clinical Signs of Dysentery During the Postchallenge Period: Any clinical signs / Number of Pigs per Pen Expressing Clinical Signs of Dysentery During the Postchallenge Period: Bloody feces / Number of Pigs per Pen Expressing Clinical Signs of Dysentery During the Postchallenge Period: Dehydrated / Number of Pigs per Pen Expressing Clinical Signs of Dysentery During the Postchallenge Period: Depressed / Number of Pigs per Pen Expressing Clinical Signs of Dysentery During the Postchallenge Period: Gauntness / Number of Pigs per Pen Expressing Clinical Signs of Dysentery During the Postchallenge Period: Lethargic / Number of Pigs per Pen Expressing Clinical Signs of Dysentery During the Postchallenge Period: Reddened skin / Number of Pigs per Pen Expressing Clinical Signs of Dysentery During the Postchallenge Period: Rough hair coat / Number of Pigs per Pen Expressing Clinical Signs of Dysentery During the Postchallenge Period: Weak: 5 pigs/pen
Source text: One hundred twenty (120) cross-bred barrows and gilts were used in a randomized complete blocks design to evaluate the effect of lysocellin on Treponema hyodysenteriae induced swine dysentery. The swine were divided into 4 groups: (1) non-infected, non-medicated controls, (2) infected non-medicated controls, (3) infected, medicated at 98.43 grams lysocellin/t (100 g/T), and (4) infected, medicated at 196.85 grams lysocellin/t (200 g/T). All were observed through a 51-day trial period. Swine in groups (2)-(4) were challenged with Treponema hyodysenteriae on study day 22 and the post-challenge period data were analyzed for significant differences. A description of the experimental design is summarized as follows:
Comparisons were made on treatment 1 vs. treatments 3 and 4, treatment 2 vs. treatment 3 and 4, and treatment 3 vs. treatment 4. The following observations were made based upon data analyzed: postchallenge performance of swine with respect to daily gain and daily feed gain, number of pigs per pen expressing clinical signs of dysentery during the postchallenge period, number of pig days per pen with clinical signs of dysentery during the postchallenge period, and number of pig days per pen with specified fecal score.
Referring to table 3 and table 4, clinical signs of dysentery observed during the postchallenge period are presented as treatment means of: number of pigs per pen expressing the sign and number of pig days the sign was observed within a pen. The value "pig days" was based on 28 days/pig surviving to the end of the trial or number of days a pig survived during the postchallenge period (for example, 5 pigs/pen on trial for 28 days equals 140 pig days). Removal of pigs from a pen during the trial was taken into account in these calculations.

[1] = 98.43 g/t (100 g/T) lysocellin, mean (lower, higher 95% confidence limits)
[2] = 98.43 g/t (100 g/T) lysocellin, mean (lower, higher 95% confidence limits), 5 pigs/pen for 28 days = 140 pig days
[3] = 196.85 g/t (200 g/T) lysocellin, mean (lower, higher 95% confidence limits)
[4] = 196.85 g/t (200 g/T) lysocellin, mean (lower, higher 95% confidence limits), 5 pigs/pen for 28 days = 140 pig days

Substance: lysocellin
- Number of Pigs per Pen Expressing Clinical Signs of Dysentery During the Postchallenge Period: Anorexia [1]: 0.00 (-0.27,0.37)
- Number of Pigs per Pen Expressing Clinical Signs of Dysentery During the Postchallenge Period: Any clinical signs [1]: 4.49 (3.42,5.69)
- Number of Pigs per Pen Expressing Clinical Signs of Dysentery During the Postchallenge Period: Bloody feces [1]: 2.73 (1.93,3.66)
- Number of Pigs per Pen Expressing Clinical Signs of Dysentery During the Postchallenge Period: Dehydrated [1]: 1.08 (0.44,1.89)
- Number of Pigs per Pen Expressing Clinical Signs of Dysentery During the Postchallenge Period: Depressed [1]: 1.78 (1.18,2.47)
- Number of Pigs per Pen Expressing Clinical Signs of Dysentery During the Postchallenge Period: Gauntness [1]: 3.98 (3.13,4.92)
- Number of Pigs per Pen Expressing Clinical Signs of Dysentery During the Postchallenge Period: Lethargic [1]: 2.12 (1.50,2.82)
- Number of Pigs per Pen Expressing Clinical Signs of Dysentery During the Postchallenge Period: Reddened skin [1]: 0.87 (0.24,1.69)
- Number of Pigs per Pen Expressing Clinical Signs of Dysentery During the Postchallenge Period: Rough hair coat [1]: 1.93 (1.20,2.79)
- Number of Pigs per Pen Expressing Clinical Signs of Dysentery During the Postchallenge Period: Weak [1]: 1.93 (1.31,2.64)
- Number of Pig Days per Pen with Clinical Signs of Dysentery During the Postchallenge Period: Anorexia [2]: 0.00 (-0.30,0.43)
- Number of Pig Days per Pen with Clinical Signs of Dysentery During the Postchallenge Period: Bloody feces [2]: 9.98 (5.72,15.34)
- Number of Pig Days per Pen with Clinical Signs of Dysentery During the Postchallenge Period: Dehydrated [2]: 2.69 (1.40,4.33)
- Number of Pig Days per Pen with Clinical Signs of Dysentery During the Postchallenge Period: Depressed [2]: 3.14 (1.78,4.81)
- Number of Pig Days per Pen with Clinical Signs of Dysentery During the Postchallenge Period: Gauntness [2]: 30.35 (20.97,41.42)
- Number of Pig Days per Pen with Clinical Signs of Dysentery During the Postchallenge Period: Lethargic [2]: 9.08 (4.93,14.42)
- Number of Pig Days per Pen with Clinical Signs of Dysentery During the Postchallenge Period: Reddened skin [2]: 2.21 (0.51,4.72)
- Number of Pig Days per Pen with Clinical Signs of Dysentery During the Postchallenge Period: Rough hair coat [2]: 18.07 (7.46,33.11)
- Number of Pig Days per Pen with Clinical Signs of Dysentery During the Postchallenge Period: Weak [2]: 0.87 (0.08,1.99)
- fecal condition (number of pen pig days with a specified fecal condition) (196.85 g lysocellin/t (200 g/T) rather than 98.43 g/T, postchallenge period (Table 5, not given)): increased (PM.05) the number of days with normal feces and decreased (P<.05) the incidence of soft, watery or bloody feces
- Number of Pigs per Pen Expressing Clinical Signs of Dysentery During the Postchallenge Period: Anorexia [3]: 0.00 (-0.27,0.37)
- Number of Pigs per Pen Expressing Clinical Signs of Dysentery During the Postchallenge Period: Any clinical signs [3]: 2.72 (1.87,3.70)
- Number of Pigs per Pen Expressing Clinical Signs of Dysentery During the Postchallenge Period: Bloody feces [3]: 1.20 (0.63,1.89)
- Number of Pigs per Pen Expressing Clinical Signs of Dysentery During the Postchallenge Period: Dehydrated [3]: 0.23 (-0.18,0.80)
- Number of Pigs per Pen Expressing Clinical Signs of Dysentery During the Postchallenge Period: Depressed [3]: 0.27 (-0.06,0.70)
- Number of Pigs per Pen Expressing Clinical Signs of Dysentery During the Postchallenge Period: Gauntness [3]: 1.96 (1.35,2.67)
- Number of Pigs per Pen Expressing Clinical Signs of Dysentery During the Postchallenge Period: Lethargic [3]: 0.43 (0.08,0.87)
- Number of Pigs per Pen Expressing Clinical Signs of Dysentery During the Postchallenge Period: Reddened skin [3]: 0.55 (0.01,1.28)
- Number of Pigs per Pen Expressing Clinical Signs of Dysentery During the Postchallenge Period: Rough hair coat [3]: 1.31 (0.68,2.06)
- Number of Pigs per Pen Expressing Clinical Signs of Dysentery During the Postchallenge Period: Weak [3]: 1.31 (0.78,1.93)
- Number of Pig Days per Pen with Clinical Signs of Dysentery During the Postchallenge Period: Anorexia [4]: 0.00 (-0.30,0.43)
- Number of Pig Days per Pen with Clinical Signs of Dysentery During the Postchallenge Period: Bloody feces [4]: 3.02 (0.78,6.35)
- Number of Pig Days per Pen with Clinical Signs of Dysentery During the Postchallenge Period: Dehydrated [4]: 0.23 (-0.30,1.09)
- Number of Pig Days per Pen with Clinical Signs of Dysentery During the Postchallenge Period: Depressed [4]: 0.38 (-0.21,1.29)
